From patent publication US20230124862A1, “BISMUTH THIOL COMPOUNDS AND COMPOSITIONS AND METHODS OF TREATING MICROBIAL CO-INFECTIONS” (Microbion Corporation, priority 2020, published 2023)
In brackets after ≈: the same amount, converted by molar mass. Read-outs that look alike come from different tables or passages of the source.

Columns and labels:
[1] = system: Anaerobes (Bacteroides fragilis, Clostridium difficile); test: Agar dilution MIC (Example 11); type: cell-based; details: read-out: MIC
Description: The susceptibility of anaerobic bacteria was determined by agar dilution using Brucella Agar (BD/BBL; Lot No. 5237692) supplemented with 5 μg/mL hemin (Sigma, St. Louis, Mo.; Lot No. 108K1088), 1 μg/mL Vitamin K1 and 5% (v/v) laked sheep blood (Cleveland Scientific, Bath, Ohio; Lot No. 322799).
Agar Dilution MIC Testing (Anaerobic Bacteria and Gonococci): MIC values for anaerobic bacteria were determined using a reference agar dilution method as described by CLSI (6). Organisms were grown at 35° C. in the Bactron II Anaerobic Chamber (Shel Lab, Cornelius, Oreg.) for approximately 48 hr prior to the assay. Drug dilutions and drug-supplemented agar plates were prepared manually per CLSI (6). The plates were allowed to stand at room temperature for 1 hr to allow the agar surface to dry and pre-reduced for approximately 1 hr in the anaerobe chamber prior to inoculation. Each isolate was suspended to the equivalent of a 0.5 McFarland standard in Brucella broth using a turbidity meter (Dade Behring MicroScan, West Sacramento, Calif.). Each bacterial cell suspension was then diluted 1:10 in Brucella broth and transferred to wells in a stainless steel replicator block which was used to inoculate the test plates. The prongs on the replicator deliver approximately 1-2 μl of inoculum to an agar surface. The resulting inoculum spots contained approximately 1×10^5 CFU/spot. After the inoculum dried, the inoculated drug-supplemented agar plates and no drug growth control plates were incubated at 35° C. for 42-48 hr in the anaerobe chamber. The MIC was read per CLSI guidelines (6).

[2] = system: Anaerobes (Bacteroides fragilis, Clostridium difficile); details: C. difficile MMX 4381 (ATCC 700057); cited from earlier work
[3] = system: Gram-positive organisms (S. aureus, S. pneumoniae); test: Broth microdilution MIC with pulmonary surfactant (Survanta); type: cell-based, Staphylococcus aureus, Streptococcus pneumoniae
[4] = system: Gram-positive organisms (S. aureus, S. pneumoniae); details: cited from earlier work
Candida spp. [5] = details: C. parapsilosis MMX 2323 (ATCC 22019), cited from earlier work
Candida krusei [6] = details: C. krusei ATCC 6258, CLSI established QC range, cited from earlier work
[7] = system: C. parapsilosis ATCC 22019; details: C. parapsilosis ATCC 22019, CLSI established QC range, cited from earlier work
Candida krusei [8] = test: Antifungal broth microdilution (Example 13); type: cell-based; details: C. krusei ATCC 6258, comparators, single value
Candida spp. [9] = test: Broth microdilution MIC (Example 11); type: cell-based, C. parapsilosis, C. albicans, C. glabrata, C. tropicalis
Aspergillus spp. [10] = details: cited from earlier work
Aspergillus spp. [11] = test: Antifungal broth microdilution (Example 13); type: cell-based, A. niger, A. terreus, A. fumigatus, A. flavus
S. aureus ATCC 29213 = test: MIC control strain; details: QC organism, Example 13
[12] = system: C. parapsilosis ATCC 22019; test: Antifungal broth microdilution (Example 13), QC organism; type: cell-based, Candida parapsilosis; details: comparators, single value
E. coli ATCC 25922 = test: MIC control strain; details: QC organism, Example 13

CCc1c(Cl)c(O)c(Cl)c(O)c1C(=O)O[C@H]1[C@H](O)[C@H](OC)[C@H](OC/C2=C\C=C\C[C@H](O)/C(C)=C/[C@H](CC)[C@@H](O[C@@H]3OC(C)(C)[C@@H](OC(=O)C(C)C)[C@H](O)[C@@H]3O)/C(C)=C/C(C)=C/C[C@@H]([C@@H](C)O)OC2=O)O[C@@H]1C [Fidaxomicin]
MIC ([1]; Bacteroides fragilis, ATCC25285, B. fragilis MMX 123 (ATCC 25285), QC): > 64 µg/mL
MIC ([1]; C. difficile MMX 4381 (ATCC 700057), QC, CC^1): 0.25 µg/mL (≈ 0.236 µM)
MIC ([1]; C. difficile MMX 5680 (NCTC 13336), ribotype 027, CC^1 MET^R): 4 µg/mL (≈ 3.78 µM)
MIC ([1]; C. difficile MMX 5681 (NCTC 13307), ribotype 012, CC^R): 0.5 µg/mL (≈ 0.473 µM)
MIC ([1]; C. difficile MMX 8272, ribotype 255, CC^1): 0.5 µg/mL (≈ 0.473 µM)
MIC ([1]; C. difficile MMX 8279, ribotype 005, CC^R): 0.5 µg/mL (≈ 0.473 µM)
MIC ([1]; C. difficile MMX 8281, ribotype 010, CC^R): 0.5 µg/mL (≈ 0.473 µM)
CLSI QC range of MIC [2]: (0.06-0.25) μg/mL

CCCCCCCCCC(=O)N[C@@H](Cc1c[nH]c2ccccc12)C(=O)N[C@H](CC(N)=O)C(=O)N[C@@H](CC(=O)O)C(=O)N[C@@H]1C(=O)NCC(=O)N[C@@H](CCCN)C(=O)N[C@@H](CC(=O)O)C(=O)N[C@H](C)C(=O)N[C@@H](CC(=O)O)C(=O)NCC(=O)N[C@H](CO)C(=O)N[C@@H]([C@H](C)CC(=O)O)C(=O)N[C@@H](CC(=O)c2ccccc2N)C(=O)O[C@@H]1C [daptomycin]
effect of Survanta addition on MIC values ([3]; S. aureus and S. pneumoniae): increased
MIC ([3]; S. pneumoniae ATCC 49619, 0 percent Survanta): 0.06 µg/mL (≈ 0.037 µM)
MIC ([3]; S. pneumoniae ATCC 49619, 1 percent Survanta): 0.25 µg/mL (≈ 0.154 µM)
MIC ([3]; S. pneumoniae ATCC 49619, 2.5 percent Survanta): 1 µg/mL (≈ 0.617 µM)
MIC ([3]; S. pneumoniae MMX 3162, 0 percent Survanta): 0.12 µg/mL (≈ 0.074 µM)
MIC ([3]; S. pneumoniae MMX 3162, 1 percent Survanta): 0.25 µg/mL (≈ 0.154 µM)
MIC ([3]; S. pneumoniae MMX 3162, 2.5 percent Survanta): 0.25 µg/mL (≈ 0.154 µM)
MIC ([3]; Staphylococcus aureus, ATCC29213, S. aureus ATCC 29213, 0 percent Survanta): 0.5 µg/mL (≈ 0.309 µM)
MIC ([3]; Staphylococcus aureus, ATCC29213, S. aureus ATCC 29213, 1 percent Survanta): 16 µg/mL (≈ 9.87 µM)
MIC ([3]; Staphylococcus aureus, ATCC29213, S. aureus ATCC 29213, 2.5 percent Survanta): 32 µg/mL (≈ 19.7 µM)
MIC ([3]; Staphylococcus aureus, ATCC29213, S. aureus ATCC 29213, 5 percent Survanta): > 32 µg/mL
MIC ([3]; Staphylococcus aureus, ATCC29213, S. aureus ATCC 29213, 10 percent Survanta): > 32 µg/mL
MIC ([3]; Staphylococcus aureus, ATCC43300, S. aureus ATCC 43300, 0 percent Survanta): 0.25 µg/mL (≈ 0.154 µM)
MIC ([3]; Staphylococcus aureus, ATCC43300, S. aureus ATCC 43300, 1 percent Survanta): 8 µg/mL (≈ 4.94 µM)
MIC ([3]; Staphylococcus aureus, ATCC43300, S. aureus ATCC 43300, 2.5 percent Survanta): 16 µg/mL (≈ 9.87 µM)
MIC ([3]; Staphylococcus aureus, ATCC43300, S. aureus ATCC 43300, 5 percent Survanta): 16 µg/mL (≈ 9.87 µM)
MIC ([3]; Staphylococcus aureus, ATCC43300, S. aureus ATCC 43300, 10 percent Survanta): > 32 µg/mL
CLSI acceptable MIC QC range ([4]; S. aureus ATCC 29213): (0.12-1) μg/mL
CLSI acceptable MIC QC range ([4]; S. pneumoniae ATCC 49619): (0.06-0.5) μg/mL

C[C@@H]1[C@H](O)[C@@H](C)/C=C/C=C/C=C/C=C/C=C/C=C/C=C/[C@H](O[C@@H]2O[C@H](C)[C@@H](O)[C@H](N)[C@@H]2O)C[C@@H]2O[C@](O)(C[C@@H](O)C[C@@H](O)[C@H](O)CC[C@@H](O)C[C@@H](O)CC(=O)O[C@H]1C)C[C@H](O)[C@H]2C(=O)O [Amphotericin B]
CLSI QC range of MIC (Candida spp. [5]; 24 hr): 0.25 to 2 µg/mL
CLSI QC range of MIC (Candida spp. [5]; 48 hr): 0.5 to 4 µg/mL
QC Range 24 hr (Candida krusei [6]; 24 hr): 0.5-2
QC Range 48 hr (Candida krusei [6]; 48 hr): 1-4
QC Range 24 hr ([7]; 24 hr): 0.25-2
QC Range 48 hr ([7]; 48 hr): 0.5-4
MIC 24 hr (Candida krusei [8]; 24 hr): 0.5 µg/mL (≈ 0.541 µM)
MIC 48 hr (Candida krusei [8]; 48 hr): 0.5 µg/mL (≈ 0.541 µM)
MIC (Candida spp. [9]; C. albicans MMX 7039, Sensitive, incubation 24 hr): 0.5, 0.5 μg/mL
MIC (Candida spp. [9]; C. albicans MMX 7039, Sensitive, incubation 48 hr): 0.5, 0.5 μg/mL
MIC (Candida spp. [9]; C. albicans MMX 7055, Sensitive, incubation 24 hr): 0.25 µg/mL (≈ 0.271 µM)
MIC (Candida spp. [9]; C. albicans MMX 7055, Sensitive, incubation 48 hr): 0.5 µg/mL (≈ 0.541 µM)
MIC (Candida spp. [9]; C. glabrata MMX 7318, FLU^R, incubation 24 hr): 0.5 µg/mL (≈ 0.541 µM)
MIC (Candida spp. [9]; C. glabrata MMX 7318, FLU^R, incubation 48 hr): 1 µg/mL (≈ 1.08 µM)
MIC (Candida spp. [9]; C. glabrata miX 7086, FLU^R, incubation 24 hr): 0.5 µg/mL (≈ 0.541 µM)
MIC (Candida spp. [9]; C. glabrata miX 7086, FLU^R, incubation 48 hr): 1 µg/mL (≈ 1.08 µM)
MIC (Candida spp. [9]; C. parapsilosis MMX 2323 (ATCC 22019), QC, incubation 24 hr): 0.5 µg/mL (≈ 0.541 µM)
MIC (Candida spp. [9]; C. parapsilosis MMX 2323 (ATCC 22019), QC, incubation 48 hr): 1 µg/mL (≈ 1.08 µM)
MIC (Candida spp. [9]; C. parapsilosis MMX 7370, FLU^R, incubation 24 hr): 0.5 µg/mL (≈ 0.541 µM)
MIC (Candida spp. [9]; C. parapsilosis MMX 7370, FLU^R, incubation 48 hr): 1 µg/mL (≈ 1.08 µM)
MIC (Candida spp. [9]; C. parapsilosis MMX 7555, FLU^R, incubation 24 hr): 0.5, 0.5 μg/mL
MIC (Candida spp. [9]; C. parapsilosis MMX 7555, FLU^R, incubation 48 hr): 0.5, 0.5 μg/mL
MIC (Candida spp. [9]; C. tropicalis MMX 7247, FLU^R, incubation 24 hr): 0.5 µg/mL (≈ 0.541 µM)
MIC (Candida spp. [9]; C. tropicalis MMX 7247, FLU^R, incubation 48 hr): 1 µg/mL (≈ 1.08 µM)
MIC (Candida spp. [9]; C. tropicalis MMX 7248, FLU^R, incubation 24 hr): 0.5 µg/mL (≈ 0.541 µM)
MIC (Candida spp. [9]; C. tropicalis MMX 7248, FLU^R, incubation 48 hr): 1 µg/mL (≈ 1.08 µM)
MIC (Candida spp. [9]; C. tropicalis MMX 7360, FLU^R, incubation 24 hr): 0.5, 0.5 μg/mL
MIC (Candida spp. [9]; C. tropicalis MMX 7360, FLU^R, incubation 48 hr): 0.5, 0.5 μg/mL
QC Range 48 hr (Aspergillus spp. [10]; A. flavus ATCC 204304, CLSI established QC range): 0.5-4
QC Range 48 hr (Aspergillus spp. [10]; A. fumigatus ATCC MYA-3626, CLSI established QC range): 0.5-4
MIC 24 hr (Aspergillus spp. [11]; A. flavus ATCC 204304): 0.5 µg/mL (≈ 0.541 µM)
MIC 48 hr (Aspergillus spp. [11]; A. flavus ATCC 204304): 1 µg/mL (≈ 1.08 µM)
MIC 24 hr (Aspergillus spp. [11]; A. fumigatus ATCC MYA-3626): 0.5 µg/mL (≈ 0.541 µM)
MIC 48 hr (Aspergillus spp. [11]; A. fumigatus ATCC MYA-3626): 1 µg/mL (≈ 1.08 µM)
MIC 24 hr (S. aureus ATCC 29213): >64
MIC 24 hr ([12]; 24 hr): 0.5 µg/mL (≈ 0.541 µM)
MIC 48 hr ([12]; 48 hr): 0.5 µg/mL (≈ 0.541 µM)
MIC 24 hr (E. coli ATCC 25922): >64
